# Assay results taken from article PMC9695599, “N-Terminally Lipidated Sialorphin Analogs—Synthesis, Molecular Modeling, In Vitro Effect on Enkephalins Degradation by NEP and Treatment of Intestinal Inflammation in Mice” (International Journal of Molecular Sciences, 2022).
# Residues, ends and D or L forms follow the SMILES beside them.
# Assays:
# [1] = molecular target: neutral endopeptidase (NEP) (Homo sapiens, UniProt P08473); test: Degradation of Met-enkephalin by NEP alone and in the presence of inhibitors; details: for 1000 × k, degradation rate of Met-enkephalin incubated with NEP in the presence of inhibitor / t1/2, half-life of Met-enkephalin incubated with NEP in the presence of inhibitor: Met-enkephalin 0.0413 mM, inhibitor 0.156 mM, NEP 5.687 nM, Tris–HCl 50 mM pH 7.4, 37 °C, 0, 30, 60, 90, 120 min, RP-HPLC, mean ± SEM, triplicates
# Experimental: Determination of Met-enkephalin degradation rates was performed, as described previously. Purified enzyme NEP was purchased from Merck (Warsaw, Poland). Solutions of Met-enkephalin, NEP, and inhibitors were prepared by dissolving them in a Tris–HCl buffer (50 mM, pH 7.4). In investigated samples, the concentrations of Met-enkephalin, inhibitors, and NEP were, respectively, 0.0413 mM, 0.156 mM, and 5.687 nM. The samples consisting of NEP, Met-enkephalin, and the inhibitor were incubated over 0, 30, 60, 90, and 120 min at 37 °C in a final volume of 300 μL. The reaction was stopped with a 1 M aqueous HCl solution. In the next steps, the samples were centrifuged and the supernatants were filtered and analyzed by RP-HPLC. All measurements were performed in triplicates.
# [2] = Stability of peptides in human plasma; assay type: in vitro ADME; details: 37 °C, 200 µL peptide solution (1 mg/mL in PBS pH 7.42) + 50 µL human plasma, ethanol deproteinization, RP-HPLC peak area vs 0 h, at least triplicate; for Stability in human plasma relative to heterodimer of sialorphin and spinorphin, after 4 h: 4 h incubation; for Level of remaining peptide in human plasma relative to heterodimer of sialorphin and spinorphin, after 24 h: 24 h incubation
# Experimental: Compounds VII and VIII were the strongest inhibitors of NEP in vitro and were thus included in stability assays. Peptides were incubated in the human plasma at 37 °C, and their degradation was analyzed by RP HPLC. The stability of peptides VII–VIII was compared to that of a heterodimer of sialorphin and spinorphin and not sialorphin alone. In previously described stability assays of sialorphin alone, the 48% TFA solution was used to precipitate proteins before HPLC analysis. In the case of the peptides VII and VIII, we had to use ethanol instead of the TFA solution. This change was required by the fact that in the latter solution, an emergence of a degradation product that was characterized by identical retention time on HPLC as that of peptides VII and VIII occurred. Consequently, a different reference was used (heterodimer of sialorphin and spinorphin instead of sialorphin).
# Plasma-stability assays were performed by applying procedure described by Sobocińska et al.. Each peptide solution was prepared by dissolving 1 mg of a peptide in 1 mL of PBS buffer (pH 7.42). The samples containing the peptide (200 µL) and freshly […] plasma (50 µL) were incubated at 37 °C. The samples were analyzed after 0, 2, 4, and 24 h. At each time interval 40 μL of the mixture was taken and deproteinized by addition of a ethanol (120 µL). The aliquots were centrifuged at 14,500 rpm for 5 min. The supernatants were filtered over Millipore Millex-GV syringe filters (Merck Life Science, Poznan, Poland) and analyzed with RP-HPLC on a Phenomenex Gemini-NX C18 5 µm column (4.6 mm × 150 mm) using the solvent system of 0.1% TFA in water (A) and 0.1% TFA in acetonitrile (B) and linear gradients of 20–80% (B) over 20 min, at a flow rate of 1.5 mL/min. To assess the stability at each time interval, the area of the peptide peak from the chromatogram was calculated and expressed as the percentage of the area of the peak recorded just after mixing a peptide with plasma (0-hour). The assay was performed at least in triplicate for each peptide.
# [3] = test system: DSS-induced colitis in mice; test: DSS-induced mouse model of colitis; assay type: in vivo, mouse (male BALB/C); details: for Effect on microscopic damage score / colon architecture (in words): DSS-induced colitis, peptide 1 mg/kg i.p. twice daily day 3-6, hematoxylin-eosin stained distal colon sections, day 7
# Experimental: Male BALB/C mice obtained from University of Lodz, Poland, weighing 22–25 g (6–8 weeks of age), were used. The mice were kept at a constant temperature (22–23 °C) and maintained under a 12 h light/dark cycle with constant access to laboratory chow and tap water. All animal protocols were approved by the Medical University of Lodz Animal Care Committee (Protocol 2/ŁB 123/2019 and 17/ŁB 132/2019) and complied with Directive 2010/63/EU of the European Parliament and of the Council of 22 September 2010. All efforts were made to minimize animal suffering and to reduce the number of animals used.
# Colonic inflammation was induced as described before. From day 0 to day 5, mice received DSS: 4% w/v and molecular weight 40,000 (PanReac AppliChem, Darmstadt, Germany) in drinking water. On days 6 and 7, the DSS solution was replaced with tap water. Control animals were given drinking water throughout the whole experiment. Animal body weight was monitored daily. Mice were sacrificed by cervical dislocation on day 7, and colonic damage was evaluated.
# Treatment was administered intraperitoneally (i.p.) twice daily from day 3 to day 6 after colitis induction, 100 µL/mouse. Peptides were administered at the dose of 1 mg/kg bw. Control and DSS groups received vehicle alone (100 µL/mouse, i.p.).
# On day 7 of the experiment, mice were euthanized. For total macroscopic damage score evaluation, the colon was removed immediately after cervical dislocation and weighed with fecal content. Next, the colon was opened longitudinally, and the feces were removed.
# Total macroscopic damage score was calculated based on the stool consistency (0—normal, well-shaped fecal pellets; 3—diarrhea), colon epithelial damage (0–3), and colon length and weight scores, calculated as a loss of each parameter relative to the control group (0 points, ≤5% weight/length loss; 1 point, 5–14% weight/length loss; 2 points, 15–24% weight/length loss; 3 points, 25–35% weight/length loss; and 4 points, ≥35% weight/length loss). […] The presence (score = 1) or absence (score = 0) of fecal blood was also recorded. […]
# Chain of neutral endopeptidase (NEP) (P08473 whole entry, species assumed): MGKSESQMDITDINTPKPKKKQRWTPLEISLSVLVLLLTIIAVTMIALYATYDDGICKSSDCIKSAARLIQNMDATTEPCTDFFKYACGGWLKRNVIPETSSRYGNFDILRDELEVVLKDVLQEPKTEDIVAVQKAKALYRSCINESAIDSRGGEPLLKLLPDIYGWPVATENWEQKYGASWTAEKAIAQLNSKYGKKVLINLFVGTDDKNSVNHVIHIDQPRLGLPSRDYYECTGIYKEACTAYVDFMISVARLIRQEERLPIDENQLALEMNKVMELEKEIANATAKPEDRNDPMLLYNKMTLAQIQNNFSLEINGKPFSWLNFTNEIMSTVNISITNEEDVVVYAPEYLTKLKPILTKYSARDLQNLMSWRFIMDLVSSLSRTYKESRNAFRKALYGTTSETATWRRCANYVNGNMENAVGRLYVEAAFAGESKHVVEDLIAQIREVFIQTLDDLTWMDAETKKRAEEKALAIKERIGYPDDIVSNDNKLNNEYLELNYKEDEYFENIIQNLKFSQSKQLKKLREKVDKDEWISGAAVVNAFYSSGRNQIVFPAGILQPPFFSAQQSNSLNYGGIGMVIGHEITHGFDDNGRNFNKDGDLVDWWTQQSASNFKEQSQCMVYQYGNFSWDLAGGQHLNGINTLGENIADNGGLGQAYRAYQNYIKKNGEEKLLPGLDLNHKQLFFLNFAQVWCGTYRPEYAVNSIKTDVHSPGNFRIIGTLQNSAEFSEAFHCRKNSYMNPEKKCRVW
Structure (SMILES),"Stability in human plasma relative to heterodimer of sialorphin and spinorphin, after 4 h [2]","Level of remaining peptide in human plasma relative to heterodimer of sialorphin and spinorphin, after 24 h [2]","1000 × k, degradation rate of Met-enkephalin incubated with NEP in the presence of inhibitor [1]","t1/2, half-life of Met-enkephalin incubated with NEP in the presence of inhibitor [1]","half-life at 0.0413 mM ([1]; isolated enzyme neprilysin, pH 7.4)",Effect on microscopic damage score / colon architecture (in words) [3],"Total macroscopic damage score ([3]; DSS 4% w/v in drinking water day 0-5, peptide 1 mg/kg i.p. twice daily day 3-6, evaluated day 7, mean ± SEM, n = 5–10, DSS-only 11.20 ± 0.60, control 0.55 ± 0.18)"
"CSCC[C@H](NC(=O)[C@H](Cc1ccccc1)NC(=O)CNC(=O)CNC(=O)[C@@H](N)Cc1ccc(O)cc1)C(=O)O [Met-Enkephalin, Met-enkephalin, reference compound]",,,,,27 ± 1 min,,
CCCCCCCCCCCCCC(=O)N[C@@H](CCCCN)C(=O)N[C@@H](CCCCN)C(=O)N[C@@H](CCC(N)=O)C(=O)N[C@@H](Cc1c[nH]cn1)C(=O)N[C@@H](CC(N)=O)C(=O)N1CCC[C@H]1C(=O)N[C@@H](CCCNC(=N)N)C(=O)O [VI] (HELM PEPTIDE1{[CCCCCCCCCCCCCC(=O)[*:2]].K.K.Q.H.N.P.R}$$$$V2.0),,,20.06 ± 1.34 ** 1/min,35 ± 2 min,,,
CCCCCCCCCCCC(=O)N[C@@H](CCCCN)C(=O)N[C@@H](CCCCN)C(=O)N[C@@H](CCC(N)=O)C(=O)N[C@@H](Cc1c[nH]cn1)C(=O)N[C@@H](CC(N)=O)C(=O)N1CCC[C@H]1C(=O)N[C@@H](CCCNC(=N)N)C(=O)O [V] (HELM PEPTIDE1{[CCCCCCCCCCCC(=O)[*:2]].K.K.Q.H.N.P.R}$$$$V2.0),,,23.20 ± 0.89 min⁻¹,30 ± 1 min,,,

# The next lines start with results.
"Stability in human plasma relative to heterodimer of sialorphin and spinorphin, after 4 h [2]","Level of remaining peptide in human plasma relative to heterodimer of sialorphin and spinorphin, after 24 h [2]","1000 × k, degradation rate of Met-enkephalin incubated with NEP in the presence of inhibitor [1]","t1/2, half-life of Met-enkephalin incubated with NEP in the presence of inhibitor [1]",Structure (SMILES),"half-life at 0.0413 mM ([1]; isolated enzyme neprilysin, pH 7.4)",Effect on microscopic damage score / colon architecture (in words) [3],"Total macroscopic damage score ([3]; DSS 4% w/v in drinking water day 0-5, peptide 1 mg/kg i.p. twice daily day 3-6, evaluated day 7, mean ± SEM, n = 5–10, DSS-only 11.20 ± 0.60, control 0.55 ± 0.18)"
1.4 times,5.5 times,0.89 ± 0.10 *** 1/min,724 ± 43 min,CCCCCCCCCCCCCCCCCC(=O)N[C@@H](CCCCN)C(=O)N[C@@H](CCCCN)C(=O)N[C@@H](CCC(N)=O)C(=O)N[C@@H](Cc1c[nH]cn1)C(=O)N[C@@H](CC(N)=O)C(=O)N1CCC[C@H]1C(=O)N[C@@H](CCCNC(=N)N)C(=O)O [VIII] (HELM PEPTIDE1{[CCCCCCCCCCCCCCCCCC(=O)[*:2]].K.K.Q.H.N.P.R}$$$$V2.0),,less pronounced,
1.4 times,1.3 times,3.46 ± 0.40 *** 1/min,199 ± 2 min,CCCCCCCCCCCCCCCC(=O)N[C@@H](CCCCN)C(=O)N[C@@H](CCCCN)C(=O)N[C@@H](CCC(N)=O)C(=O)N[C@@H](Cc1c[nH]cn1)C(=O)N[C@@H](CC(N)=O)C(=O)N1CCC[C@H]1C(=O)N[C@@H](CCCNC(=N)N)C(=O)O [VII] (HELM PEPTIDE1{[CCCCCCCCCCCCCCCC(=O)[*:2]].K.K.Q.H.N.P.R}$$$$V2.0),,significantly improved colon architecture,10.20 ± 0.99
